The text below walks through data of US7507421B2, “Hydroxycitric acid salt composition and method of making” (Unibar Corporation, priority 2002, dated 2009).

A short description of data set [1]: Solubility in water. It counts as physicochemical. The conditions noted are these: deionized water at room temperature. As to the method:
The resultant solution was spray dried to yield a salt of hydroxycitric acid with the following analysis: potassium content 11% to 18%, calcium content 5% to 12%, structural moisture 3% to 5% and hydroxycitric acid content 70% to 76%. The sodium content was less than 0.5% and lactone less than 0.5%. […] This salt composition is tasteless and white in color. A solution of 5 g in 100 ml of de-ionized sterile water was subjected to an accelerated storage study chamber for 2 months.

The test system of data set [2] is adult female Wistar rats. The data set can be described thus: Acute Oral Toxicity (OECD Test Guideline 425), LD50. It counts as in vivo. More on the design: key: X = Died; ◯ = Survived. The following applies: dose 2000 mg/kg, single animal.
Data set [3] deals with adult female Wistar rats. The description is as above. The conditions noted are these: for LD50: oral, female Wistar rats. It counts as in vivo. More on the design: key to Short-term Result / Long-term Result: X = Died; ◯ = Survived. As to the method:
A representative lot of powder obtained as described above is a pure, stable calcium potassium salt of hydroxycitric acid having a proximate analysis of 70 to 75% hydroxycitric acid, 7.5% to 9.5% calcium, 12 to 15% potassium and 3 to 5% structural moisture. The sodium content is less than 0.5%, and HCA lactone content is less than 0.5%. An animal toxicity study was conducted on the product to establish its LD50.
Doses were selected in accordance with the Acute Oral Toxicity (OECD Test Guideline 425) Statistical Program as follows: 175, 550, 1750, 5000 mg/kg of body weight in adult female Wistar rats.

Data set [4] can be described thus: Accelerated storage study of aqueous solution. It counts as physicochemical. The following applies: 5 g in 100 ml de-ionized sterile water, accelerated storage study chamber, 2 months. As to the method:
50 g equivalent of the hydroxy citric acid—potassium salt solution from Example 2 was taken into a glass beaker fitted with a stirring arrangement. To this solution, 43 g of the dried calcium salt from Example 1 was added and the mixture was stirred to yield a clear solution. The resultant solution was spray dried to yield a salt of hydroxycitric acid with the following analysis: potassium content 11% to 18%, calcium content 5% to 12%, structural moisture 3% to 5% and hydroxycitric acid content 70% to 76%. The sodium content was less than 0.5% and lactone less than 0.5%. The combined salt has a solubility of 5 g in 100 mL of deionized water at room temperature. This salt composition is tasteless and white in color. A solution of 5 g in 100 ml of de-ionized sterile water was subjected to an accelerated storage study chamber for 2 months.

The mark [5] stands for this setting: dose 5000 mg/kg, one line per animal.

Take “Combined Potassium-Calcium Salts of Hydroxycitric Acid [Example 3]”: the solubility in data set [1] is recorded as 5 g in 100 mL. The “Long-term Result” value is given as “◯” in data set [2]; “◯” in data set [3] (dose 175 mg/kg, single animal); “◯” in data set [3] (dose 550 mg/kg, single animal); “◯” in data set [3] (setting [5]). In addition, the “Short-term Result” value was “◯” in data set [2]; “◯” in data set [3] (dose 175 mg/kg, single animal); “◯” in data set [3] (dose 550 mg/kg, single animal); “◯” in data set [3] (setting [5]). For the same substance, the “Died (long-term, number of animals)” value in data set [3] (All Doses, total 6) was 0; in data set [3] (dose 175 mg/kg, total 1) it was 0; in data set [3] (dose 550 mg/kg, total 1), 0; in data set [3] (dose 2000 mg/kg, total 1) it was 0; in data set [3] (dose 5000 mg/kg, total 3) it was 0. The “Survived (long-term, number of animals)” value in data set [3] (All Doses, total 6) came to 6; in data set [3] (dose 175 mg/kg, total 1) it was 1; in data set [3] (dose 550 mg/kg, total 1) it was 1; in data set [3] (dose 2000 mg/kg, total 1) it was 1; in data set [3] (dose 5000 mg/kg, total 3), 3. The figures for the LD50 entry in data set [3] and in data set [3] (conclusion of Table 8) were “more than 5 gm/kg” and “Conclusion: LD50 of a sample of the Test Compound was found to be greater than 5000 mg/kg”, respectively. In addition, the “clarity of solution after storage” value in data set [4] is reported as “retained its clarity”. Moreover, the “precipitation of salt after storage of solution” value in data set [4] is “did not precipitate out”.
